Source: publication PMC10269895 (Microbiology Spectrum, 2023)
Values after ≈ are worked out from the molar mass of the structure shown. Read-outs that look alike come from different tables or passages of the source.

Tests used:
[1] = tested on: C. freundii ATCC 8090
Procedure: (§1) MICs were determined by adapting the protocol from CLSI guidelines (Table 1; [15]). Briefly, from an overnight preculture, 49.2 μL of an inoculum of 5 × 10^5 CFU/mL in MH broth or DMEM was dispensed into 384-well plates, and 0.8 μL of compounds solubilized in dimethyl sulfoxide (DMSO) and serially diluted was added to the bacterial cultures. […] MICs were determined by measurement of the optical density at 600 nm (OD600). The experiments were performed in duplicate. Commercially available strains were obtained from the American Type Culture Collection (ATCC), the German Collection of Microorganisms and Cell Cultures (DSMZ), and the Biological Resource Center of Institut Pasteur (CRBIP).

[2] = tested on: E. cloacae ATCC BAA-2468; conditions: NDM-1 strain
Procedure: as §1

[3] = tested on: E. cloacae CIP 105879
Procedure: as §1

[4] = tested on: E. coli ATCC BAA-2469; conditions: NDM-1 strain
Procedure: as §1

[5] = tested on: E. coli ATCC BAA-2471; conditions: NDM-1 strain
Procedure: as §1

[6] = tested on: E. coli DSM 46345
Procedure: as §1

[7] = tested on: E. coli MG1655
Procedure: as §1

[8] = tested on: K. pneumoniae ATCC BAA-2342; conditions: KPC strain
Procedure: as §1

[9] = tested on: K. pneumoniae ATCC BAA-2470; conditions: NDM-1 strain
Procedure: as §1

[10] = tested on: P. mirabilis DSM4479
Procedure: as §1

[11] = tested on: P. stuartii ATCC 29851
Procedure: as §1

[12] = Solubility in phosphate buffer (pH 7.4); format: physicochemical
Procedure: (i) Solubility in phosphate buffer (pH 7.4). For calibration, approximately 2 mg of GE81112A was weighed into a HPLC glass vial. DMSO was added to reach a target concentration of 2 mg/mL. Dilutions for calibration (10 μg/mL, 50 μg/mL, and 100 μg/mL) were prepared by adding adjusted volumes of DMSO and were correlated with ultraperformance liquid chromatography (UPLC)-UV peak areas at 220 nm. For solubility determinations, 2 mg of GE81112A was weighed into a HPLC glass vial. Phosphate buffer (pH 7.4) was added to reach a target concentration of 2 mg/mL. The vial was shaken for 16 h at 25°C, with protection from light, on an Eppendorf thermomixer at 600 rpm, followed by centrifugation at 10,000 rpm for 5 min at 25°C and filtration through a 0.45-μm filter. The filtrated supernatant was analyzed (UPLC-UV, λ = 220 nm), and the concentration of the analyte in the filtrate was calculated based on the peak area/real concentration ratio from previous calibration runs.

[13] = Chemical stability in the presence of GSH; format: physicochemical; conditions: incubation for 168 h
Procedure: Based on a stock solution of 0.2 mg GE81112A in 1,548 μL methanol, three different samples were prepared in triplets (test mixture: 100 μL stock solution, 2 μL DMSO, and 1 μL DMSO containing 1.5 GSH equivalents; reference sample A: 200 μL stock solution; reference sample B: 200 μL stock solution and 2 μL DMSO). All samples were measured at three different time points (0 h, 24 h, and 168 h) on a MaXis II system (Bruker).

[14] = tested on: G-protein-coupled receptors, ion channels, NET and DAT panel; assay: Pharmacological off-target profiling: in vitro binding assays (CEREP); set-up: species or system human unless stated (rat); conditions: 0.01 mM
Text: FIG 3 In vitro binding assays. Inhibitory effects of GE81112A were investigated for G-protein-coupled receptors for adenosine (A1 and A2A), […] (α1A, α2A, β1, and β2), cannabinoids (CB1 and CB2), dopamine (D1 and D2S), histamine (H1 and H2), acetylcholine (M1, M2, and M3), opioids (μ-MOP), and serotonin (5-HT1A, 5-HT2A, and 5-HT2B), the ion channels Gly (rat), nAChR (α4β2), nAChR (muscle type), PCP (rat), Cav1.2 (rat), Kv (rat), SKCa (rat), and GABACl (rat), NET (GenBank accession number P23975), and DAT (GenBank accession number Q01959).

[15] = molecular target: hNaV1.5 (Homo sapiens, UniProt Q14524); assay: Off-target ion channel profiling (automated patch clamp); format: cell-based; conditions: concentrations up to 30 μM
Sequence of hNaV1.5 (Q14524 whole entry): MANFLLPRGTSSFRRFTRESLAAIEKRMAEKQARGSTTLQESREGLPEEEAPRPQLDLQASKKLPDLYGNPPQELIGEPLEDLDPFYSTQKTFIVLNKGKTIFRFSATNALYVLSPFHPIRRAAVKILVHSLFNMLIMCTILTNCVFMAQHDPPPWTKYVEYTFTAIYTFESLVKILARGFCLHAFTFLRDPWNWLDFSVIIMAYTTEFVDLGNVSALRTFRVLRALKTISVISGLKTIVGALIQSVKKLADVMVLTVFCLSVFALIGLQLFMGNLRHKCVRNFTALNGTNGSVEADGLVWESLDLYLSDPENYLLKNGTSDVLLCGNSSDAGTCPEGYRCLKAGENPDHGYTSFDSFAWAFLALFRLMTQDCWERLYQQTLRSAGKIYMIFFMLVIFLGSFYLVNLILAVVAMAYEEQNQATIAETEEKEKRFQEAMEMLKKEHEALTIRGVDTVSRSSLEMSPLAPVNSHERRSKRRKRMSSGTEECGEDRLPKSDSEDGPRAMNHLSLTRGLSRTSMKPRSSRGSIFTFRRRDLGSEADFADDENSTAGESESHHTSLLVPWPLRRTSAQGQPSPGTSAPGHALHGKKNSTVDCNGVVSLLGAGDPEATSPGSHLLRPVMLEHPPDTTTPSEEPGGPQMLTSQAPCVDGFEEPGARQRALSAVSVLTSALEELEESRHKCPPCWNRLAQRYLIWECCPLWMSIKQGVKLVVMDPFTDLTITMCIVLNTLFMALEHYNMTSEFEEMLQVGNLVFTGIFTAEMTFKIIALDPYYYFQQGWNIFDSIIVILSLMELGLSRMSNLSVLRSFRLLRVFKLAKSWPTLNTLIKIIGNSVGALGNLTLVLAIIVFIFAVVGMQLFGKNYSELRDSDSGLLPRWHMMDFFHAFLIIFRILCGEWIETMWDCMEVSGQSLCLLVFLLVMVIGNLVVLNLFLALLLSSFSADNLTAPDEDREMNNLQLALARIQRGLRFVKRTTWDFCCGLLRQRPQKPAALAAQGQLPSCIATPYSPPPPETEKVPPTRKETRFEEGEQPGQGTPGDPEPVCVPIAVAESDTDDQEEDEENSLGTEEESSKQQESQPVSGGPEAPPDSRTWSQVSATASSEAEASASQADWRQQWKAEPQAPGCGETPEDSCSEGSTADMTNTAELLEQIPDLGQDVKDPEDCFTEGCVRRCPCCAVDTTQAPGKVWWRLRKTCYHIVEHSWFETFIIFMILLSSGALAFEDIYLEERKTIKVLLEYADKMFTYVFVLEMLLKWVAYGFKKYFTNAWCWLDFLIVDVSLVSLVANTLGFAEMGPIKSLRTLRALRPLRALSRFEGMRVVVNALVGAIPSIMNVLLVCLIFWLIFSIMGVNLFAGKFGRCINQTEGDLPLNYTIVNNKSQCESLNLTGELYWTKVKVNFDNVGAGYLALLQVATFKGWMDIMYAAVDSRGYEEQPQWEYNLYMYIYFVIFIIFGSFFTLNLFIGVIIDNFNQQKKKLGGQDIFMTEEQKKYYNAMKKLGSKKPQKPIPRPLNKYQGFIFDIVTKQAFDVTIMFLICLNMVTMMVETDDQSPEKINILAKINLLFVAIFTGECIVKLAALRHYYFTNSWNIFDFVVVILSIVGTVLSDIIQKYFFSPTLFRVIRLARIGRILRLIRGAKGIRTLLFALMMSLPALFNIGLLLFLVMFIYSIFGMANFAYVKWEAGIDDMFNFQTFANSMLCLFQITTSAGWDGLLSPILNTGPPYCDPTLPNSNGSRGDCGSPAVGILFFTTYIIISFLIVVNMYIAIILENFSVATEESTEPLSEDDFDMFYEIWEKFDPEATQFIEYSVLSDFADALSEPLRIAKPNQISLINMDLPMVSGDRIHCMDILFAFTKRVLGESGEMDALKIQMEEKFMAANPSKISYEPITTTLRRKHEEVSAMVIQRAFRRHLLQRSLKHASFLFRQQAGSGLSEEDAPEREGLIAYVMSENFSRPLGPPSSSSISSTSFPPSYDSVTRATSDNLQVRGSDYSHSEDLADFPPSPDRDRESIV
Procedure: The effect of GE81112A on the hERG and other ion channels (hNaV1.5, hNaV1.2, hCaV3.1, or hKV4.3) was investigated using an automated patch-clamp method, as described by Houtmann et al. ([17]). GE81112A was diluted in a 5-fold 1:3 dilution series with a final concentration range of 30 to 0.12 μM in extracellular medium (150 mM NaCl, 4 mM KCl, 2 mM CaCl2, 1 mM MgCl2, 10 mM HEPES, 10 mM glucose, 0.06% Pluronic F-68, 0.3% residual DMSO). The hERG channel was constitutively expressed in Chinese hamster ovary (CHO) cells (CHO hERG Duo; B’SYS GmbH, Witterswil, Switzerland). CHO cells were grown at a concentration of 8 × 10^6 CHO cells/mL in QPlates (Sophion/Biolin Scientific, Ballerup, Denmark) in Ex-Cell animal component-free CHO medium (Sigma-Aldrich) supplemented with 25 mM HEPES, 100 U/mL penicillin-streptomycin, and 0.004% soybean trypsin inhibitor. To each well, we added extracellular medium containing the desired concentration of GE81112A. The peptide-hERG interaction was quantified by recording the tail current following repolarization of the hERG channels using a QPatch HTX station (Sophion/Biolin Scientific). The IC50 values were determined using the values from three replicates of the GE81112A concentration series with respect to the terfenadine citrate positive control and extracellular medium (blank).

[16] = tested on: PDE3A, acetylcholinesterase, MAO-A, Na+/K+-ATPase; conditions: 0.01 mM
Procedure: The targets were human recombinant proteins unless a different species is stated. All tests were conducted at a peptide concentration of 0.01 mM according to CEREP procedures.
Pharmacological off-target profiling was conducted by CEREP (Celle-Le’vescault, France) to investigate inhibitory effects against the targets specified in Fig. 3 and 4. […] We selected 19 G-protein-coupled receptors (acetylcholine, adenosine, androgens, cannabinoids, dopamine, histamine, opioids, and serotonin), eight ion channels (Gly, nicotinic acetylcholine receptor [nAChR], phencyclidine [PCP], Cav1.2, Kv, SKCa, and γ-aminobutyric acid-gated chloride channels [GABACl]), two transporters (dopamine transporter [DAT] and noradrenaline transporter [NET]), and four enzymes (phosphodiesterase [PDE], acetylcholinesterase, monoamine oxidase (MAO), and Na^+/K^+-ATPase) for testing.

Question: What does the source list for `NC(=O)OC[C@@H](O)C[C@H](NC(=O)[C@H]1NCCC[C@H]1O)C(=O)N[C@@H](Cc1c[nH]cn1)C(=O)N[C@H](C(=O)O)[C@H](O)c1cnc(Cl)[nH]1` [GE81112A]?
Answer: MIC ([1]; DMEM): 32 µg/mL (≈ 49.7 µM); MIC ([1]; MHII): >64 µg/mL; MIC ([2]; DMEM): >64 µg/mL; MIC ([2]; MHII): >64 µg/mL; MIC ([3]; DMEM): >64 µg/mL; MIC ([3]; MHII): >64 µg/mL; MIC ([4]; DMEM): >64 µg/mL; MIC ([4]; MHII): >64 µg/mL; MIC ([5]; DMEM): 4 µg/mL (≈ 6.21 µM); MIC ([5]; MHII): >64 µg/mL; MIC ([6]; DMEM): >64 µg/mL; MIC ([6]; MHII): >64 µg/mL; MIC ([7]; DMEM): 1 µg/mL (≈ 1.55 µM); MIC ([7]; MHII): >64 µg/mL; MIC ([8]; DMEM): >64 µg/mL; MIC ([8]; MHII): >64 µg/mL; MIC ([9]; DMEM): >64 µg/mL; MIC ([9]; MHII): >64 µg/mL; MIC ([10]; DMEM): 64 µg/mL (≈ 99.4 µM); MIC ([10]; MHII): >64 µg/mL; MIC ([11]; DMEM): >64 µg/mL; MIC ([11]; MHII): >64 µg/mL; solubility at 16 h [12]: > 500 µg/mL; Stability in the presence of glutathione (GSH) [13]: no degradation or formation of adducts; Off-target inhibitory effects, binding assays [14]: no critical inhibiting effect; Ion channel inhibition [15]: did not inhibit; Off-target inhibitory effects, enzyme and uptake assays [16]: no critical inhibiting effect
